Laboratory results: patent publication US12257224B2, “Methods of administration for highly water-soluble salts of a short acting phenylalkylamine calcium channel blocker” (Milestone Pharmaceuticals Inc., priority 2021, dated 2025)
Read-outs that look alike come from different tables or passages of the source.

Assays:
[1] = Formation of concentrated aqueous acid addition salt solutions of compound I; type: physicochemical; conditions: free base treated with methanesulfonic acid or acetic acid
[2] = Permeation of compound I through the nasal epithelium with EDTA in the formulation
Excerpt: The nasal vestibule, which accounts for approximately 3-4% of the surface area of the nasal cavity, lacks tight junctions altogether and is thus not affected by calcium chelating agents. […] As such, it has been postulated that the nasal epithelium is not susceptible to permeability modulation by EDTA (Aungst, et al., Pharma. Res., 1998, 5:305-308). Additionally, the ability of EDTA to increase permeation of a compound through the nasal epithelium is attenuated as the molecular weight of the compound increases (Nakanishi, et al., Chem. Pharm. Bull., 1984, 32:1628-1632).

[3] = Phase 1 study (doses up to 140 mg; PR interval, MFD, TEAEs); type: in vivo, human
PSVT = experiment: Example 5: heart rate during PSVT prior to conversion to sinus rhythm; type: in vivo, human
Excerpt: Each PSVT was documented by an ambulatory cardiac monitoring system that was placed on the chest after symptoms began. Baseline (average of four values before drug administration), and every minute of heart rate data were captured from baseline until one minute before the PSVT was converted to sinus rhythm. […]

[4] = Example 7: PK analysis, serum concentration after one vs two 70 mg nasal doses; type: in vivo, human; set-up: serum concentration, Median: unit not given here; conditions: for concentration at 13 min / concentration at 15 min: human, serum, other: nasal
Method: The serum concentration of compound I over time from the first administration for the study arm with a single 70 mg dose administration of compound I was compared with the study arm with two 70 mg dose administrations of compound I. The second 70 mg dose of compound I was administered approximately 10 minutes after the first dose.

[5] = patients who converted to sinus rhythm
[6] = one 70 mg nasal dose, Time 10.5
[7] = one 70 mg nasal dose, Time 11.5
[8] = one 70 mg nasal dose, Time 1450
[9] = two 70 mg nasal doses, second approximately 10 minutes after first, Time 7
[10] = two 70 mg nasal doses, second approximately 10 minutes after first, Time 9
[11] = two 70 mg nasal doses, second approximately 10 minutes after first, Time 10.5
[12] = two 70 mg nasal doses, second approximately 10 minutes after first, Time 11.5

SMILES: COC(=O)c1cccc(CCN(C)CCCC(C#N)(c2ccc(OC)c(OC)c2)C(C)C)c1 (centres unmarked) [compound I, methyl 3-(2-((4-cyano-4-(3,4-dimethoxyphenyl)-5-methylhexyl)(methyl)amino)ethyl)benzoate]
- salt solution concentration attainable [1]: concentrations sufficient for nasal administration
- permeation through the nasal epithelium [2]: increased the permeation of compound I through the nasal epithelium
- PR interval of the ECG ([3]; 4 highest doses tested: 30, 60, 105 and 140 mg): produced an increase in the PR interval of the ECG
- Treatment Emergent Adverse Effects (TEAEs) ([3]; doses higher than 70 mg): an increase in Treatment Emergent Adverse Effects (TEAEs), mainly related to nasal irritation
- drug exposure and PR interval ([3]; two 30 mg doses 10 minutes apart vs single 30 mg dose): drug exposure and PR interval increased and remained elevated for a longer period
- mean change in heart rate from baseline (±SE) (PSVT; 70 mg, 3 min, during PSVT): −10 bpm
- mean change in heart rate from baseline (±SE) (PSVT; 70 mg, 10 min, during PSVT): −16 bpm
- mean change in heart rate from baseline (±SE) (PSVT; 70 mg, 30 min, during PSVT): −14 bpm
- mean change in heart rate from baseline (±SE) (PSVT; 70 mg, 40 min, during PSVT): −13 bpm
- persistence of decrease in heart rate (PSVT; 70 mg, during PSVT): sustained through the 60-minute observation period
- mean change in heart rate from baseline (±SE) (PSVT; 70 mg, within the first minute, during PSVT): −5 bpm
- maximal change from baseline in heart rate, converters to sinus rhythm in <30 minutes versus >30 minutes (PSVT; [5]): significant difference
- maximal change from baseline in heart rate, converters to sinus rhythm in <60 minutes versus >60 minutes (PSVT; [5]): significant difference
- concentration at 13 min ([4]; two 70 mg nasal doses, second approximately 10 minutes after first, Time 13, read-out: serum concentration, Max): 320 ng/mL
- concentration at 13 min ([4]; two 70 mg nasal doses, second approximately 10 minutes after first, Time 13, read-out: serum concentration, Mean): 115 ng/mL
- concentration at 13 min ([4]; two 70 mg nasal doses, second approximately 10 minutes after first, Time 13, read-out: serum concentration, Median): 93.6 ng/mL
- concentration at 13 min ([4]; two 70 mg nasal doses, second approximately 10 minutes after first, Time 13, read-out: serum concentration, Min): 22.5 ng/mL
- concentration at 15 min ([4]; two 70 mg nasal doses, second approximately 10 minutes after first, Time 15, read-out: serum concentration, Max): 317 ng/mL
- concentration at 15 min ([4]; two 70 mg nasal doses, second approximately 10 minutes after first, Time 15, read-out: serum concentration, Mean): 110 ng/mL
- concentration at 15 min ([4]; two 70 mg nasal doses, second approximately 10 minutes after first, Time 15, read-out: serum concentration, Median): 76.9 ng/mL
- concentration at 15 min ([4]; two 70 mg nasal doses, second approximately 10 minutes after first, Time 15, read-out: serum concentration, Min): 25.2 ng/mL
- serum concentration, Max ([4]; one 70 mg nasal dose, Time 0): 0 ng/mL
- serum concentration, Mean ([4]; one 70 mg nasal dose, Time 0): 0.00
- serum concentration, Median ([4]; one 70 mg nasal dose, Time 0): 0.00
- serum concentration, Min ([4]; one 70 mg nasal dose, Time 0): 0.00
- serum concentration, Max ([4]; one 70 mg nasal dose, Time 0.5): 0 ng/mL
- serum concentration, Mean ([4]; one 70 mg nasal dose, Time 0.5): 0.00
- serum concentration, Median ([4]; one 70 mg nasal dose, Time 0.5): 0.00
- serum concentration, Min ([4]; one 70 mg nasal dose, Time 0.5): 0.00
- serum concentration, Mean ([4]; one 70 mg nasal dose, Time 1.5): 11.79
- serum concentration, Median ([4]; one 70 mg nasal dose, Time 1.5): 5.20
- serum concentration, Min ([4]; one 70 mg nasal dose, Time 1.5): 0.00
- serum concentration, Max ([4]; one 70 mg nasal dose, Time 1.5, in ng/mL): 56.12
- serum concentration, Mean ([4]; one 70 mg nasal dose, Time 3): 62.82
- serum concentration, Median ([4]; one 70 mg nasal dose, Time 3): 32.60
- serum concentration, Min ([4]; one 70 mg nasal dose, Time 3): 11.45
- serum concentration, Max ([4]; one 70 mg nasal dose, Time 3, in ng/mL): 205.27
- serum concentration, Mean ([4]; one 70 mg nasal dose, Time 5): 90.64
- serum concentration, Median ([4]; one 70 mg nasal dose, Time 5): 67.70
- serum concentration, Min ([4]; one 70 mg nasal dose, Time 5): 21.18
- serum concentration, Max ([4]; one 70 mg nasal dose, Time 5, in ng/mL): 191.63
- serum concentration, Mean ([4]; one 70 mg nasal dose, Time 7): 83.04
- serum concentration, Median ([4]; one 70 mg nasal dose, Time 7): 74.22
- serum concentration, Min ([4]; one 70 mg nasal dose, Time 7): 28.61
- serum concentration, Max ([4]; one 70 mg nasal dose, Time 7, in ng/mL): 152.59
- serum concentration, Mean ([4]; one 70 mg nasal dose, Time 9): 73.39
- serum concentration, Median ([4]; one 70 mg nasal dose, Time 9): 69.68
- serum concentration, Min ([4]; one 70 mg nasal dose, Time 9): 25.94
- serum concentration, Max ([4]; one 70 mg nasal dose, Time 9, in ng/mL): 130.50
- serum concentration, Mean [4, 6]: 67.95
- serum concentration, Median [4, 6]: 59.91
- serum concentration, Min [4, 6]: 30.24
- serum concentration, Max ([4]; one 70 mg nasal dose, Time 10.5, in ng/mL): 121.45
- serum concentration, Mean [4, 7]: 66.91
- serum concentration, Median [4, 7]: 59.09
- serum concentration, Min [4, 7]: 31.61
- serum concentration, Max ([4]; one 70 mg nasal dose, Time 11.5, in ng/mL): 119.67
- serum concentration, Mean ([4]; one 70 mg nasal dose, Time 13): 62.34
- serum concentration, Median ([4]; one 70 mg nasal dose, Time 13): 59.07
- serum concentration, Min ([4]; one 70 mg nasal dose, Time 13): 29.29
- serum concentration, Max ([4]; one 70 mg nasal dose, Time 13, in ng/mL): 103.40
- serum concentration, Mean ([4]; one 70 mg nasal dose, Time 15): 57.44
- serum concentration, Median ([4]; one 70 mg nasal dose, Time 15): 52.11
- serum concentration, Min ([4]; one 70 mg nasal dose, Time 15): 26.98
- serum concentration, Max ([4]; one 70 mg nasal dose, Time 15, in ng/mL): 111.44
- serum concentration, Mean ([4]; one 70 mg nasal dose, Time 17): 50.32
- serum concentration, Median ([4]; one 70 mg nasal dose, Time 17): 41.80
- serum concentration, Min ([4]; one 70 mg nasal dose, Time 17): 26.92
- serum concentration, Max ([4]; one 70 mg nasal dose, Time 17, in ng/mL): 90.05
- serum concentration, Mean ([4]; one 70 mg nasal dose, Time 20): 49.43
- serum concentration, Median ([4]; one 70 mg nasal dose, Time 20): 46.51
- serum concentration, Min ([4]; one 70 mg nasal dose, Time 20): 22.74
- serum concentration, Max ([4]; one 70 mg nasal dose, Time 20, in ng/mL): 80.55
- serum concentration, Mean ([4]; one 70 mg nasal dose, Time 25): 41.86
- serum concentration, Median ([4]; one 70 mg nasal dose, Time 25): 42.30
- serum concentration, Min ([4]; one 70 mg nasal dose, Time 25): 19.26
- serum concentration, Max ([4]; one 70 mg nasal dose, Time 25, in ng/mL): 66.12
- serum concentration, Mean ([4]; one 70 mg nasal dose, Time 35): 33.35
- serum concentration, Median ([4]; one 70 mg nasal dose, Time 35): 36.90
- serum concentration, Min ([4]; one 70 mg nasal dose, Time 35): 15.09
- serum concentration, Max ([4]; one 70 mg nasal dose, Time 35, in ng/mL): 51.52
- serum concentration, Mean ([4]; one 70 mg nasal dose, Time 60): 20.41
- serum concentration, Median ([4]; one 70 mg nasal dose, Time 60): 22.06
- serum concentration, Min ([4]; one 70 mg nasal dose, Time 60): 8.89
- serum concentration, Max ([4]; one 70 mg nasal dose, Time 60, in ng/mL): 31.10
- serum concentration, Mean ([4]; one 70 mg nasal dose, Time 100): 13.91
- serum concentration, Median ([4]; one 70 mg nasal dose, Time 100): 12.75
- serum concentration, Min ([4]; one 70 mg nasal dose, Time 100): 6.20
- serum concentration, Max ([4]; one 70 mg nasal dose, Time 100, in ng/mL): 23.24
- serum concentration, Mean ([4]; one 70 mg nasal dose, Time 240): 5.90
- serum concentration, Median ([4]; one 70 mg nasal dose, Time 240): 5.91
- serum concentration, Min ([4]; one 70 mg nasal dose, Time 240): 1.48
- serum concentration, Max ([4]; one 70 mg nasal dose, Time 240, in ng/mL): 11.01
- serum concentration, Max ([4]; one 70 mg nasal dose, Time 370): 6.08 ng/mL
- serum concentration, Mean ([4]; one 70 mg nasal dose, Time 370): 2.49
- serum concentration, Median ([4]; one 70 mg nasal dose, Time 370): 2.51
- serum concentration, Min ([4]; one 70 mg nasal dose, Time 370): 0.00
- serum concentration, Max ([4]; one 70 mg nasal dose, Time 730): 3.17 ng/mL
- serum concentration, Mean ([4]; one 70 mg nasal dose, Time 730): 0.76
- serum concentration, Median ([4]; one 70 mg nasal dose, Time 730): 0.00
- serum concentration, Min ([4]; one 70 mg nasal dose, Time 730): 0.00
- serum concentration, Max [4, 8]: 1.2 ng/mL
- serum concentration, Mean [4, 8]: 0.10
- serum concentration, Median [4, 8]: 0.00
- serum concentration, Min [4, 8]: 0.00
- serum concentration, two 70 mg doses vs single 70 mg dose ([4]; second dose approximately 10 minutes after the first): raised the serum concentration of compound I above that observed with a single 70 mg dose
- serum concentration, Mean [4, 9]: 85.77
- serum concentration, Median [4, 9]: 91.42
- serum concentration, Min [4, 9]: 17.16
- serum concentration, Max ([4]; two 70 mg nasal doses, second approximately 10 minutes after first, Time 7, in ng/mL): 180.76
- serum concentration, Mean [4, 10]: 73.20
- serum concentration, Median [4, 10]: 77.41
- serum concentration, Min [4, 10]: 15.37
- serum concentration, Max ([4]; two 70 mg nasal doses, second approximately 10 minutes after first, Time 9, in ng/mL): 144.91
- serum concentration, Mean [4, 11]: 65.97
- serum concentration, Median [4, 11]: 65.18
- serum concentration, Min [4, 11]: 14.49
- serum concentration, Max ([4]; two 70 mg nasal doses, second approximately 10 minutes after first, Time 10.5, in ng/mL): 143.87
- serum concentration, Mean [4, 12]: 96.77
- serum concentration, Median [4, 12]: 102.11
- serum concentration, Min [4, 12]: 15.52
- serum concentration, Max ([4]; two 70 mg nasal doses, second approximately 10 minutes after first, Time 11.5, in ng/mL): 215.35
